Data published in US20240199623A1 (ILDONG PHARMACEUTICAL CO., LTD., priority 2020, published 2024).

These compounds were tested against human wild type-CFTR (Homo sapiens, UniProt P13569) (assay: Cell-based YFP assay). Details: CHO-K1 cells expressing human wild type-CFTR and YFP-H148Q/I152L; forskolin 20 μM = 100% activity; read-out: Cell-based YFP Assay (EC50) Concentration Range.
Parameters: expressed in transfected cells; host or cells: CHO-K1 (Chinese hamster ovary)
Experimental: Forskolin (Tocris cat. #1099), Dimethyl sulfoxide (Sigma cat. #D4540), FLUO star Omega microplate reader (BMG Labtech, Ortenberg, Germany), MARS Data Analysis Software (BMG Labtech), GraphPad Prism 5 (GraphPad Software, Inc.) Chinese hamster ovary (CHO-K1) cells expressing human wild type-CFTR and halide sensor YFP-H148Q/I152L were constructed and grown in Dulbecco's modified Eagle's medium (DMEM) supplemented with 10% FBS, 2 mM glutamine, 100 units/ml penicillin and 100 μg/ml streptomycin. Chinese hamster ovary (CHO-K1) cells expressing human wild type-CFTR and halide sensor YFP-H148Q/I152L were seeded in 96-well microplate with 2×10^4 cells/well and incubated in 37° C., 48 hours. Then, each well was washed 3 times with PBS and 100 μL PBS was added in each well. […] YFP fluorescence signal affected by I^− ion influx through CFTR channel was measured in 37° C., FLUO star Omega microplate reader according to the following steps: • i) basal 2 seconds; • ii) 140 mM I^− solution 100 μL addition to each well; • iii) YFP fluorescence signal measurement start after 6 seconds; and • iv) following 14 seconds signal detection in every 0.4 seconds periods. […] Experiments were performed in triplicates and the data was averaged. EC50 values were calculated with MARS Data Analysis Software (BMG Labtech) and GraphPad Prism 5.

Sequence of human wild type-CFTR (P13569 whole entry): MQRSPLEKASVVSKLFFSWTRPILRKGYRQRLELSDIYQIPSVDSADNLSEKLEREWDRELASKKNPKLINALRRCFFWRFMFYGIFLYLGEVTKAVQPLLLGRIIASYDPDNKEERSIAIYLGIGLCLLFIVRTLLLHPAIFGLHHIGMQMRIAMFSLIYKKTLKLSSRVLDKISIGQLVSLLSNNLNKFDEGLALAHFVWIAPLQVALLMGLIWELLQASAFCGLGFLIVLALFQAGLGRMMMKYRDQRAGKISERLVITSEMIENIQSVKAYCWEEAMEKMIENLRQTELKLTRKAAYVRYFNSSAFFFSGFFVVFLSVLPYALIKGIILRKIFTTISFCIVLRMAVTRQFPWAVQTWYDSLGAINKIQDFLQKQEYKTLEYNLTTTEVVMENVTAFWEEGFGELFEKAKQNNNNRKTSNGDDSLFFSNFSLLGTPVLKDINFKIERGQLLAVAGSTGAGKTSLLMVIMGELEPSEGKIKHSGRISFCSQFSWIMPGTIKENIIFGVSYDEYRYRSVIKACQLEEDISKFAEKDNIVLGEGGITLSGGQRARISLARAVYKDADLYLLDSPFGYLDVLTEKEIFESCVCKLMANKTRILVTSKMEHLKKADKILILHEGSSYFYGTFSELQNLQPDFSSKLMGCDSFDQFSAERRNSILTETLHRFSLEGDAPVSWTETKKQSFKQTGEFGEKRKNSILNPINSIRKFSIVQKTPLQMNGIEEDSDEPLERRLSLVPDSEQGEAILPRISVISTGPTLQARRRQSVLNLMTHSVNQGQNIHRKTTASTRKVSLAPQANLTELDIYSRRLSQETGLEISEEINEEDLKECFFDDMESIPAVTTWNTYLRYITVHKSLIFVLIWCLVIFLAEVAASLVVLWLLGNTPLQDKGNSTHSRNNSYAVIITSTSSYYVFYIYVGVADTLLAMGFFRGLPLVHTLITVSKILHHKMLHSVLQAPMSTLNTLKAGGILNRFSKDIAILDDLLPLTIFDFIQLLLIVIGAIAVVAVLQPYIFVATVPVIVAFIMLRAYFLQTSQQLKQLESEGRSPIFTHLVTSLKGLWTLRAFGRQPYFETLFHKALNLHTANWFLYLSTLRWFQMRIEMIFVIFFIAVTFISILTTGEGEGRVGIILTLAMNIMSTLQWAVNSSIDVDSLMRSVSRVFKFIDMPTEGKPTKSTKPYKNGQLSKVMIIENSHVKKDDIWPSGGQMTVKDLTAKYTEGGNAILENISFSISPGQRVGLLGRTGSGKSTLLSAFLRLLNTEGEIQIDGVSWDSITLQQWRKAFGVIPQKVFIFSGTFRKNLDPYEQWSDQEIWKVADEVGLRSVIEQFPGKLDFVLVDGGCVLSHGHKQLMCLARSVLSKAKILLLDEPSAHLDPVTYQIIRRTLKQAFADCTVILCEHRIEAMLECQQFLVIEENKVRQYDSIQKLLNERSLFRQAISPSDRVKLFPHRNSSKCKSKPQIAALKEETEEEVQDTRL

| SMILES | EC50 [µM] |
| --- | --- |
| COc1ccc(-c2ccnc3cc(C(=O)Nc4ccc(C(=O)N[C@@H](CCSC)C(=O)O)cc4)nn23)cc1OC [Compound 87, (4-(7-(3,4-dimethoxyphenyl)pyrazolo[1,5-a]pyrimidine-2-carboxamido)benzoyl)-L-methionine] | ≥ 2 |
| COc1ccc(-c2ccnc3cc(C(=O)Nc4ccc(C(=O)N[C@@H](CC(=O)O)C(=O)O)cc4)nn23)cc1OC [Compound 88, (4-(7-(3,4-dimethoxyphenyl)pyrazolo[1,5-a]pyrimidine-2-carboxamido)benzoyl)-L-aspartic acid] | ≥ 2 |
| COc1ccc(-c2ccnc3cc(C(=O)Nc4ccc(C(=O)N[C@H](C)C(=O)O)cc4)nn23)cc1OC [Compound 89, (4-(7-(3,4-dimethoxyphenyl)pyrazolo[1,5-a]pyrimidine-2-carboxamido)benzoyl)-D-alanine] | ≥ 2 |
| COC(=O)c1ccc(NC(=O)Nc2cc3nccc(-c4ccc(OC)c(OC)c4)n3n2)cc1 [Compound 93, methyl 4-(3-(7-(3,4-dimethoxyphenyl)pyrazolo[1,5-a]pyrimidin-2-yl)ureido)benzoate] | 0.2 to 2 |
| COc1ccc(-c2ccnc3cc(C(=O)NCc4ccc(C(=O)O)cc4)nn23)cc1OC [Compound 94, 4-((7-(3,4-dimethoxyphenyl)pyrazolo[1,5-a]pyrimidine-2-carboxamido)methyl) benzoic acid] | ≥ 2 |
| COC(=O)c1ccc(NC(=O)c2cc3nccc(-c4ccc(OC)c(OC)c4)n3n2)c(Cl)c1 [Compound 104, methyl 3-chloro-4-(7-(3,4-dimethoxyphenyl)pyrazolo [1,5-a]pyrimidine-2-carboxamido)benzoate] | ≥ 2 |
| COc1ccc(-c2ccnc3cc(NC(=O)Nc4ccc(C(=O)O)cc4)nn23)cc1OC [Compound 107, 4-(3-(7-(3,4-dimethoxyphenyl)pyrazolo[1,5-a]pyrimidin-2-yl)ureido)benzoic acid] | ≥ 2 |
| COc1ccc(-c2ccnc3cc(C(=O)NC(=Cc4ccccc4)C(=O)O)nn23)cc1OC [Compound 108, 2-(7-(3,4-dimethoxyphenyl)pyrazolo[1,5-a]pyrimidine-2-carboxamido)-3-phenylacrylic acid] | ≥ 2 |
| COc1ccc(-c2ccnc3cc(C(=O)Nc4ccc(C(=O)NCCN(C)C)cc4)nn23)cc1OC [Compound 118, 7-(3,4-dimethoxyphenyl)-N-(4-((2-(dimethylamino)ethyl)carbamoyl)phenyl) pyrazolo[1,5-a]pyrimidine-2-carboxamide] | ≥ 2 |
| COc1ccc(-c2ccnc3cc(C(=O)Nc4ccc(C(=O)NCCN5CCCCC5)cc4)nn23)cc1OC [Compound 119, 7-(3,4-dimethoxyphenyl)-N-(4-((2-(piperidin-1-yl)ethyl)carbamoyl)phenyl) pyrazolo[1,5-a]pyrimidine-2-carboxamide] | 0.2 to 2 |
| COc1ccc(-c2ccnc3cc(C(=O)Nc4ccc(C(=O)NCCN(C(C)C)C(C)C)cc4)nn23)cc1OC [Compound 120, N-(4-((2-(diisopropylamino)ethyl)carbamoyl)phenyl)-7-(3,4-dimethoxyphenyl) pyrazolo[1,5-a]pyrimidine-2-carboxamide] | < 0.2 |
| COc1ccc(-c2ccnc3cc(C(=O)Nc4ccc(C(=O)N5CCN(C)CC5)cc4C)nn23)cc1OC [Compound 128, 7-(3,4-dimethoxyphenyl)-N-(2-methyl-4-(4-methylpiperazine-1-carbonyl)phenyl)pyrazolo [1,5-a]pyrimidine-2-carboxamide] | < 0.2 |
| COc1ccc(-c2ccnc3cc(C(=O)NC(=Cc4ccccc4)C(=O)N4CCN(C)CC4)nn23)cc1OC [Compound 134, 7-(3,4-dimethoxyphenyl)-N-(3-(4-methylpiperazin-1-yl)-3-oxo-1-phenylprop-1-en-2-yl)pyrazolo[1,5-a] pyrimidine-2-carboxamide] | < 0.2 |

Second part, the compound after the results:

| EC50 [µM] | SMILES |
| --- | --- |
| ≥ 2 | COc1ccc(-c2ccnc3cc(C(=O)N4CCN(C(=O)CO)CC4)nn23)cc1OC [Compound 90, 1-(4-(7-(3,4-dimethoxyphenyl)pyrazolo[1,5-a]pyrimidine-2-carbonyl)piperazin-1-yl)-2-hydroxyethan-1-one] |
| ≥ 2 | COc1ccc(-c2ccnc3cc(C(=O)NC4CCN(C(=O)CO)CC4)nn23)cc1OC [Compound 91, 7-(3,4-dimethoxyphenyl)-N-(1-(2-hydroxyacetyl)piperidin-4-yl)pyrazolo[1,5-a]pyrimidine-2-carboxamide] |
| ≥ 2 | COc1ccc(-c2ccnc3cc(C(=O)NC45CC(C(N)=O)(C4)C5)nn23)cc1OC [Compound 95, N-(3-carbamoylbicyclo [1.1.1]pentan-1-yl)-7-(3,4-dimethoxyphenyl) pyrazolo[1,5-a]pyrimidine-2-carboxamide] |
| ≥ 2 | COc1ccc(-c2ccnc3cc(C(=O)NC45CC(C(=O)N6CCNCC6)(C4)C5)nn23)cc1OC [Compound 98, 7-(3,4-dimethoxyphenyl)-N-(3-(piperazine-1-carbonyl)bicyclo [1.1.1]pentan-1-yl)pyrazolo[1,5-a] pyrimidine-2-carboxamide] |
| ≥ 2 | COc1ccc(-c2ccnc3cc(C(=O)NN4CCOCC4)nn23)cc1OC [Compound 99, 7-(3,4-dimethoxyphenyl)-N-morpholinopyrazolo[1,5-a] pyrimidine-2-carboxamide] |
| ≥ 2 | COc1ccc(-c2ccnc3cc(C(=O)N4CCN(C)CC4)nn23)cc1OC [Compound 101, (7-(3,4-dimethoxyphenyl)pyrazolo[1,5-a]pyrimidin-2-yl)(4-methylpiperazin-1-yl)methanone] |
| ≥ 2 | COc1ccc(-c2ccnc3cc(C(=O)N[C@H]4CC[C@@H](O)CC4)nn23)cc1OC [Compound 102, 7-(3,4-dimethoxyphenyl)-N-((1S,4S)-4-hydroxycyclohexyl) pyrazolo[1,5-a]pyrimidine-2-carboxamide] |
| ≥ 2 | COc1ccc(-c2ccnc3cc(C(=O)NC4CCN(C[C@@H](O)CO)CC4)nn23)cc1OC [Compound 103, (R)-N-(1-(2,3-dihydroxypropyl)piperidin-4-yl)-7-(3,4-dimethoxyphenyl) pyrazolo[1,5-a]pyrimidine-2-carboxamide] |
| 0.2 to 2 | COc1ccc(-c2ccnc3cc(C(=O)N4CCN(C(=O)C5CC5)CC4)nn23)cc1OC [Compound 110, (4-(cyclopropanecarbonyl)piperazin-1-yl)(7-(3,4-dimethoxyphenyl)pyrazolo[1,5-a]pyrimidin-2-yl)methanone] |
| < 0.2 | COc1ccc(-c2ccnc3cc(C(=O)N4CCN(C(=O)OC(C)(C)C)[C@@H](C)C4)nn23)cc1OC [Compound 112, tert-butyl (S)-4-(7-(3,4-dimethoxyphenyl)pyrazolo[1,5-a]pyrimidine-2-carbonyl)-2-methylpiperazine-1-carboxylate] |
| < 0.2 | COc1ccc(-c2ccnc3cc(C(=O)N4CCN(C(=O)OC(C)(C)C)C(C)(C)C4)nn23)cc1OC [Compound 113, tert-butyl 4-(7-(3,4-dimethoxyphenyl)pyrazolo [1,5-a]pyrimidine-2-carbonyl)-2,2-dimethylpiperazine-1-carboxylate] |
| 0.2 to 2 | COc1ccc(-c2ccnc3cc(C(=O)N4CC[C@@H](NC(=O)OC(C)(C)C)C4)nn23)cc1OC [Compound 115, tert-butyl (R)-(1-(7-(3,4-dimethoxyphenyl)pyrazolo [1,5-a]pyrimidine-2-carbonyl)pyrrolidin-3-yl)carbamate] |
| 0.2 to 2 | COc1ccc(-c2ccnc3cc(C(=O)N4CC(NC(=O)OC(C)(C)C)C4)nn23)cc1OC [Compound 116, tert-butyl (1-(7-(3,4-dimethoxyphenyl)pyrazolo [1,5-a]pyrimidine-2-carbonyl)azetidin-3-yl) carbamate] |
| ≥ 2 | COc1ccc(-c2ccnc3cc(C(=O)N4CCC(=O)C4)nn23)cc1OC [Compound 117, 1-(7-(3,4-dimethoxyphenyl)pyrazolo[1,5-a]pyrimidine-2-carbonyl) pyrrolidin-3-one] |
| < 0.2 | COc1ccc(-c2ccnc3cc(C(=O)Nc4ccc(C)cn4)nn23)cc1OC [Compound 122, 7-(3,4-dimethoxyphenyl)-N-(5-methylpyridin-2-yl)pyrazolo[1,5-a] pyrimdine-2-carboxamide] |
| ≥ 2 | COc1ccc(-c2ccnc3cc(C(=O)NC45CC(C(=O)N6CCN(C)CC6)(C4)C5)nn23)cc1OC [Compound 123, 7-(3,4-dimethoxyphenyl)-N-(3-(4-methylpiperazine-1-carbonyl)bicyclo[1.1.1]pentan-1-yl) pyrazolo[1,5-a]pyrimidine-2-carboxamide] |
| < 0.2 | COc1ccc(-c2ccnc3cc(C(=O)Nc4ccc(C(=O)N5CCN(C)CC5)cn4)nn23)cc1OC [Compound 124, 7-(3,4-dimethoxyphenyl)-N-(5-(4-methylpiperazine-1-carbonyl)pyridin-2-yl)pyrazolo[1,5-a] pyrimidine-2-carboxamide] |
| ≥ 2 | COc1ccc(-c2ccnc3cc(C(=O)NC45CC(NC(=O)N6CCOCC6)(C4)C5)nn23)cc1OC [Compound 138, N-(3-(7-(3,4-dimethoxyphenyl)pyrazolo[1,5-a]pyrimidine-2-carboxamido)bicyclo [1.1.1]pentan-1-yl)morpholine-4-carboxamide] |
